Reference: publication PMC4961401 (PLoS ONE, 2016)
Entries after “also recorded” stand apart in the source; their conditions may differ. Read-outs that look alike come from different tables or passages of the source.

What was measured:
A549 tumor xenografts = test: Human A549 tumor xenograft in nude mice; assay type: in vivo, Balb/c-nu-nu mice; details: i.p., qd
Description: Male nude immunodeficient Balb/c-nu-nu mice, aged 6–7 weeks were purchased from the Shanghai Experimental Animal Center and housed in accordance with protocols approved by the Shanghai Institute of Materia Medica, Chinese Academy of Sciences. Generally, on day 0, A549 cells (8×10^6 cells) suspended in 0.1 mL of PBS were mixed with 0.1 mL Matrigel basement membrane matrix (BD Biosciences) and then inoculated s.c. in the right flank of each mouse. Tumors were allowed to reach 100–300 mm^3 in size before treatments were adminstered. In the animal experiment, the tumor size was measured every 3–4 days using calipers and the tumor volume was calculated using the standard formula, width^2×length/2. Body weight was measured daily.
Two experiments using nude mice with A549 tumor xenografts were conducted. In the first experiment, we tried to compare the anti-cancer effects of BF and BF211 at the same concentrations. Briefly, 12 days after inoculation, the mice were randomly divided into 6 groups (6 mice in each group) and began treatment with the vehicle control (natural saline, i.p., qd); a positive control (rapamycin, 10 mg/kg, i.v., once a week); BF at 0.8 mg/kg, i.p., qd; BF at 0.4 mg/kg for 7 days, which was then increased to 1.6 mg/kg for 9 days, i.p., qd; BF211 at 0.8 mg/kg, i.p., qd; BF211 at 0.4 mg/kg for 7 days, which was then increased to 1.6 mg/kg for 9 days, i.p., qd. In the second experiment, the anti-cancer effects of BF211 were determined at higher concentrations. Briefly, 15 days after inoculation, mice were randomly divided into 5 groups (10 mice in each group) and started treatment with the vehicle control (i.p., qd); a positive control (rapamycin, 10 mg/kg, i.v., once a week); BF211 at 2 mg/kg, i.p., qd; BF211 at 4 mg/kg, i.p., qd; BF211 at 6 mg/kg, i.p., qd. No mice died during this experimental period, and all animals were euthanized by CO2 inhalation at the end of the experiment.

NCI-H522 cells = test: MTT cell proliferation assay, NCI-H522; assay type: cell-based; details: Homo sapiens; NCI-H522, 72 h treatment; read-out: IC50 values, inhibiting proliferation
Description: (§2) The human lung cancer A549, NCI-H460, NCI-H522 and NCI-H1299 cell lines were purchased from the Cell Resource Center of Shanghai Institutes for Biological Sciences, Chinese Academy of Sciences (Shanghai, P.R. China).
(§3) Cell proliferation was assessed using a colorimetric MTT assay as described previously [10]. […] After treatment, the viability of cells was evaluated by checking the absorbance at 570 nm.

Src = test: Western blot of Src activation (p-Src); assay type: cell-based, human; details: A549 cells, 50 nM
Description: (§1) Western blot assays were conducted as described previously. Briefly, the cellular protein samples were denatured by mixing with equal volume of 2 × sample loading buffer and then boiling at 100°C for 5 min. An aliquot (50 μg as protein) of the supernatant was loaded onto a 12% SDS gel, separated electrophoretically, and transferred to a Nitrocellulose membrane (Bio-Rad). After the membrane was incubated with 10 mM TBS with 20% Tween 20 and 5% dehydrated skim milk to block nonspecific protein binding, the membrane was incubated with primary antibodies overnight at 4°C. The primary antibodies used for detection of α1 and α3 subunit of Na+,K+-ATPase were rabbit polyclonal antibody against human ATP1A1 (55187, Proteintech, 1:1000) and ATP1A3 (sc-374050, Santa Cruz Biotechnology, 1:1000), respectively. Other primary antibodies including rabbit polyclonal antibody against human Src (#2109S, 1:1000), phosphor-Src(Tyr416) (#6943S, 1: 1000); PI3K p85 (#4257P, 1:1000), phosphor-PI3K p85(Tyr458)/p55(Tyr199) (#4228P, 1: 600), Akt (#9272, 1:1000), phosphor-Akt(Ser473) (#4060S, 1:800), Bax (#2772S, 1:1000), Pro-caspase-9 (#9502S, 1:800), Caspase-3 (#9662S, 1:800); PARP (#9542, 1:1000) and GAPDH (#2118, 1:1000) were all purchased from Cell Signaling Technology. After TBS washes, blots were then incubated with HRP-linked goat anti-rabbit IgG (#7074, 1:1000) secondary antibody for 2 h at room temperature at a 1:1000 dilution and then visualized using chemiluminescence (Pierce Biotechnology, Rockford, IL, USA).

NCI-H460 cells = test: MTT cell proliferation assay, NCI-H460; assay type: cell-based; details: Homo sapiens, NCI-H460, 72 h, read-out: IC50 values, inhibiting proliferation
Description: as §2, §3

caspase-3 = test: Caspase-3 activity assay (Ac-DEVD-pNA); assay type: cell-based, human; details: A549 cells, 24 h, different concentrations
Description: The activity of caspase-3 was determined using a caspase-3 activity assay kit (C1115, Beyotime Biotechnology, Shanghai, China) according to the manufacturer's instructions. Briefly, after treatment with BF or BF211 at different concentrations for 24 h, the A549 cells were collected, washed with PBS and incubated with lysis buffer on ice for 15 min. After centrifugation at 2,000 g for 15 min at 4°C, the cell lysates were collected, and their protein concentrations were determined using the A280 method with a UV-Vis Spectrophotometer Q5000 (Quawell Technology, San Jose, CA, USA). Cell lysates (50 μg protein) were then added to reaction buffer containing the caspase-3 substrate Ac-DEVD-p-nitroanilide (2 mM) in 96-well microtiter plates and incubated at 37°C for 4 h. The caspase-3 activity in the samples was quantified by detecting the release of p-nitroanilide from Ac-DEVD-p-nitroanilide with a microplate spectrophotometer at 405 nm. The caspase-3 activity was expressed as the fold of enzyme activity in comparison with the control.

[1] = biological target: recombinant extracellular portion of human Na+/K+-ATPase α3 subunit (Homo sapiens, UniProt P13637); test: SPR (Biacore 3000) binding, α3 subunit
Description: (§4) The recombinant extracellular portion of human Na+/K+-ATPase α1 subunit (M1-M2, M3-M4, M5-M6, M7-M8 and M9-M10) was expressed as a His-fusion protein using Escherichia coli, and purified by affinity chromatography. […] The BamH I-Hind III fragment of the gene was subcloned into a pET-32b expression vector (Novagen) and transformed into E. coli BL21 (DE3) cells (Novagen). The BL21 transformants were cultivated in LB medium with ampicillin to an A600 nm of 0.8 at 37°C. Expression was induced by adding isopropyl β-D-thiogalactopyranoside (IPTG) to a final concentration of 10 mM, and incubated overnight at 20°C. The fusion protein containing a His-tag was isolated from the bacterial lysates by Ni^2+-chelation affinity chromatography using a Bio-Scale™ Mini Profinity™ IMAC Cartridge (Bio-Rad). Finally, the recombinant protein was desalted using a Bio-Scale™ Mini Bio-Gel P-6 Desalting Cartridge (Bio-Rad). The recombinant extracellular portions of the α2 and α3 subunits of human Na+/K+-ATPase were also expressed and purified using similar methods.
(§5) Briefly, for the SPR assay, the α1, α2 or α3 subunit protein was immobilized on a CM5 sensor chip as a ligand with N-ethyl-N’-(3-dimethylaminopropyl) carbodiimide (EDC) and N-hydroxysuccinimide (NHS) according to standard primary amine-coupling procedures. […] HBS-EP (10 mM HEPES, 150 mM NaCl, 3 mM EDTA, and 0.005% (v/v) surfactant P20, pH 7.4) was used as the running buffer. The equilibration of the baseline was performed by a continuous flow of HBS-EP through the chip surface for 1 to 2 h. The Biacore data were collected at 25°C with HBS-EP as the running buffer at a constant flow of 30 μL/min. […] The binding responses were recorded continuously in response units (RU) at a frequency of 1 Hz in sensorgrams and presented as a function of time.

A549 cells [2] = test: MTT cell proliferation assay, A549; assay type: cell-based; details: Homo sapiens, read-out: IC50, cell viability (MTT)
Description: as §2, §3

[3] = system: porcine cortex Na+/K+-ATPase; test: Na+/K+-ATPase activity (Pi liberated from ATP); assay type: biochemical; details: for inhibition of the activity of porcine cortex Na+/K+-ATPase: different concentrations, 1 h incubation
Description: The activity of Na+/K+-ATPase was determined by measuring the amount of inorganic phosphate (Pi) liberated from ATP, as described previously. Briefly, a commercial Na+/K+-ATPase from porcine cerebral cortex (Sigma-Aldrich, USA) was incorporated into a reaction mixture containing 1 mM ATP, 5 mM MgCl2, 80 mM NaCl, 20 mM KCl, and 40 mM Tris-HCl (pH 7.8). The enzymatic reaction was terminated by adding trichloroacetic acid after the incubation period (1 h). After centrifugation, the supernatant was diluted with deionized water and then the color development reagent provided by the QuantiChrom™ Phosphate Assay Kit (BioAssay Systems, USA) was added. After 30 min of incubation at room temperature, the color intensity was measured at 620 nm on GENIOS reader (TEACAN, Switzerland). The Na+/K+-ATPase energy transducing activity was expressed as μmol Pi liberated from ATP by 1 mg of Na+/K+-ATPase in 1 h.

[4] = biological target: recombinant extracellular portion of human Na+/K+-ATPase α1 subunit (Homo sapiens, UniProt P05023); test: SPR (Biacore 3000) binding, α1 subunit
Description: as §4, §5

ICR mice [5] = details: single dose i.p., Bliss method
Description: (§6) Therefore, totally 180 mice were used in the study of acute toxicity. […] During the 3 h observation period and other monitoring time periods, animals found in a moribund condition (head and body lying flat on cage bedding with little or no response to stimuli) and animals showing severe pain or severe distress (agonal breathing, intermittent gasping or both) were humanely killed. […] At the end of the experiment, all surviving animals were euthanized by CO2 inhalation. […] The LD50 value was calculated according to the Bliss method.

[6] = biological target: recombinant extracellular portion of human Na+/K+-ATPase α2 subunit (Homo sapiens, UniProt P50993); test: SPR (Biacore 3000) binding, α2 subunit
Description: as §4, §5

tumor cell lines = system: tumor cell lines; set-up: method as in PMID 26827628; details: broad spectrum of tumor cell lines; ref [8]; cited from earlier work
NCI-H1299 cells = test: MTT cell proliferation assay, NCI-H1299; assay type: cell-based; details: Homo sapiens; NCI-H1299, 72 h treatment; read-out: IC50 values, inhibiting proliferation
Description: as §2, §3

in vivo = details: ICR, mouse, ip
Description: as §6

caspase-3, PARP = test: Western blot of caspase-3 activation and PARP cleavage; assay type: cell-based, human; details: A549 cells, 24 h, different concentrations
Description: as §1, with “After TBS washes, blots were then incubated with HRP-linked goat anti-rabbit IgG (#7074, 1:1000) secondary antibody for 2 h at room temperature at a 1:1000 dilution and then visualized using chemiluminescence (Pierce Biotechnology, Rockford, IL, USA).” left out

A549 cells [7] = test: Free intracellular Ca2+ level (Fluo-3 AM, flow cytometry); assay type: cell-based, human; details: 50 nM
Description: The level of intracellular free Ca2+ in A549 cells was determined using the fluorescent dye Fluo-3 AM (S1056, Beyotime Biotechnology, Shanghai, China), which can cross the cell membrane and be cleaved into Fluo-3 by intracellular esterase. […] After being exposed to 50 nM BF or BF211 for 0.5, 1, 10, 30, 60 and 180 min, the cells were harvested, washed twice with PBS, and then incubated with Fluo-3 AM (5 μM) in the dark at 37°C for 1 h. After washing twice with PBS to remove the remaining extracellular probe, the cells were submitted to flow cytometric analysis with an excitation wavelength of 488nm. The quantification was conducted using the FlowJo software program based on the mean values of the peak fluorescent intensity.

A549 cells [8] = test: Annexin V/PI flow cytometry analysis of apoptosis; assay type: cell-based, human; details: 24 h treatment
Description: Flow cytometric analysis of the level of apoptosis was conducted using Alexa Fluor 488 Annexin V & PI /Dead Cell Apoptosis Kit (Invitrogen) according to the manufacturer’s instructions. Briefly, after the 24 h treatment with BF or BF211 at different concentrations, the cells were collected, washed with PBS and resuspended in binding buffer. Then, the cells were incubated with Annexin V-FITC and propidium iodide for 15 min in the dark at room temperature, and flow cytometric analysis was conducted. Data analysis was performed with the CellQuest software.

ICR mice [9] = details: i.p., ref [14]; cited from earlier work
[10] = concentrations less than 2 mg/kg (0.8 mg/kg, or 0.4 then 1.6 mg/kg)

Sequence of recombinant extracellular portion of human Na+/K+-ATPase α2 subunit (P50993 with tags, fused parts or gaps): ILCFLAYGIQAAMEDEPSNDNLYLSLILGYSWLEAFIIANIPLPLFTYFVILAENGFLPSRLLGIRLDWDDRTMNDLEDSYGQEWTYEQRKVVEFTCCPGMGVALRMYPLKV
Sequence of recombinant extracellular portion of human Na+/K+-ATPase α3 subunit (P13637 with tags, fused parts or gaps): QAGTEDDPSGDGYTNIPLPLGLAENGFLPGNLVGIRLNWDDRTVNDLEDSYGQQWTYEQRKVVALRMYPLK

C[C@]12CC[C@H](OC(=O)NC3CCNCC3)C[C@H]1CC[C@@H]1[C@@H]2CC[C@]2(C)[C@@H](c3ccc(=O)oc3)CC[C@]12O [BF211]
effect on tumor growth (A549 tumor xenografts; 6 mg/kg): almost totally blocked; also recorded: almost totally inhibited | effect on growth of tumor xenografts (A549 tumor xenografts; 2, 4, and 6 mg/kg): concentration-dependent inhibitive effects | effect on growth of tumor xenografts (A549 tumor xenografts; 4 or 6 mg/kg): strongly inhibited | effect on tumor growth (A549 tumor xenografts; [10]): weak inhibitive effects | IC50 (NCI-H522 cells): 48.3 ± 0.69 nM | level of phosphorylated Src (p-Src) (Src; 1 h after treatment): significant increase | level of phosphorylated Src (p-Src) (Src; 3 h after treatment): significant increase | IC50 (NCI-H460 cells): 68 ± 6.91 nM | enzyme activity of caspase-3 (caspase-3): significantly stronger than that of BF | kon ([1]; 25°C, 1:1 Langmuir model, read-out: Association (ka)): 30700 M⁻¹ s⁻¹ | koff ([1]; 25°C, 1:1 Langmuir model, read-out: Dissociation (kd)): 0.116 s⁻¹ | Kd ([1]; KD = kd/ka, read-out: Equilibrium dissociation (KD)): 3780 nM | IC50 (A549 cells [2]; 24 h treatment): 6.76 ± 0.41 nM | IC50 (A549 cells [2]; 48 h treatment): 4.01 ± 2.68 nM | inhibition of Na+/K+-ATPase activity compared with BF ([3]; at some concentrations, such as 0.1 μM): slightly weaker than BF | inhibition of the activity of porcine cortex Na+/K+-ATPase [3]: concentration-dependent | kon ([4]; read-out: Association (ka)): 17700 M⁻¹ s⁻¹ | koff ([4]; read-out: Dissociation (kd)): 0.0526 s⁻¹ | Kd ([4]; α1, SPR, KD = kd/ka, read-out: Equilibrium dissociation (KD)): 2960 nM | LD5 (95% confidence) (ICR mice [5]; female mice): 12.03 mg/kg (10.04~14.41 mg/kg) | LD95 (95% confidence) (ICR mice [5]; female mice): 27.55 mg/kg (22.56~33.66 mg/kg) | LD5 (95% confidence) (ICR mice [5]; male mice): 9.52 mg/kg (7.81~11.61 mg/kg) | LD95 (95% confidence) (ICR mice [5]; male mice): 22.85 mg/kg (18.89~27.64 mg/kg) | kon ([6]; read-out: Association (ka)): 9820 M⁻¹ s⁻¹ | koff ([6]; read-out: Dissociation (kd)): 0.0441 s⁻¹ | Kd ([6]; α2, SPR, KD = kd/ka, read-out: Equilibrium dissociation (KD)): 4490 nM | IC50 values, anticancer activities (tumor cell lines): nanomolar level | IC50 (NCI-H1299 cells): 40.1 ± 4.04 nM | LD50 (in vivo; female): 18.2 mg/kg | LD50 (in vivo; male): 14.8 mg/kg | activation of caspase-3 and cleavage of PARP (caspase-3, PARP): stronger than that of BF at high concentrations | time of another (second) peak of intracellular Ca2+ level (A549 cells [7]): 1800 s | time of peak intracellular Ca2+ level (A549 cells [7]): 0.5 min | induction of apoptosis (A549 cells [8]): more strongly induced apoptosis than BF

C[C@]12CC[C@H](O)C[C@H]1CC[C@@H]1[C@@H]2CC[C@]2(C)[C@@H](c3ccc(=O)oc3)CC[C@]12O [BF, Bufalin, reference compound]
effect on tumor growth (A549 tumor xenografts; [10]): weak inhibitive effects | IC50 (NCI-H522 cells): 98.7 ± 2.76 nM | level of phosphorylated Src (p-Src) (Src; 1 h after treatment): significant increase | IC50 (NCI-H460 cells): 114 ± 11.2 nM | enzyme activity of caspase-3 (caspase-3): increase in the activity of caspase-3 | IC50 (A549 cells [2]; 48 h treatment): 10.2 ± 1.01 nM | LD50 (ICR mice [9]): 2.2 mg/kg | inhibition of the activity of porcine cortex Na+/K+-ATPase [3]: concentration-dependent | IC50 (NCI-H1299 cells): 88.3 ± 11.9 nM | activation of caspase-3 and cleavage of PARP (caspase-3, PARP): could induce the activation of caspase-3 and the cleavage of PARP | time of peak intracellular Ca2+ level (A549 cells [7]): 0.5 min | induction of apoptosis (A549 cells [8]): could induce apoptosis
